Experimental data: patent US9056098B2, “Hemoglobin-based oxygen carrier-containing pharmaceutical composition for cancer targeting treatment and prevention of cancer recurrence” (Vision Global Holdings Ltd., priority 2012, dated 2015)
“And” between values parts separate entries of the source, which are not always exact repeats. Equal entries are not always repeated.

Experiments:
Assay type in all cases: cell-based
[1] = tested on: MCF7 cells isolated from mammospheres (cancer stem cells); assay: MTT assay on cancer stem cells from MCF7 mammospheres; details: Hb 0.2 g/dL, Bort 0.5 μM, 5FU 5 μM
Experimental: (§1) Cell viability is measured using a 3-(4,5-dimethylthiazol-2-yl)-2,5-diphenyltetrazolium bromide (MTT) proliferation assay. Briefly, HepG2 or Huh7 cells are seeded in a 96-well flat-bottomed microplate (6000 cells/well) and cultured in 100 μL growth medium at 37° C. and 5% CO2 for 24 h. Cell culture medium in each well is then replaced by 100 μL cell growth medium, containing either no drug, Hb alone or Hb with another chemotherapeutics at their IC50 concentrations. Incubation of Hb for 24 h, 20 μL MTT labeling reagent (5 mg/mL in PBS solution) is added to each well for further 4 h at 37° C. The growth medium is removed gently, and 200 μL DMSO is then added to each well as solubilizing agent to dissolve the formazan crystals completely. The absorbance at the wavelength of 570 nm is measured by Multiskan EX (Thermo Electron Corporation), and each data point represents the means±SD from triplicate wells.
To test sensitivity of the cancer stem cells to chemotherapeutic agent alone or to the combined therapy of hemoglobin-based oxygen carrier and the chemotherapeutic agent, different sets of chemotherapeutic agent and/or the hemoglobin-based oxygen carrier of the present invention are administered to MCF7 cells isolated from mammospheres which are obtained at later passages, e.g. passages 7 and 8. Before testing the sensitivity of the cancer stem cells, the drug resistance of CD44+/CD24− to chemotherapeutic agent is shown in FIG. 32. Unsorted MCF7 cells and CD44+/CD24− sorted cells are incubated with DMSO (as control) and 90 nM of Taxol for 16 hours and 4 days. Phase contrast images (FIG. 32) for each set of sample are taken at each time interval (16 hours and 4 days) and the sorted cells after Taxol treatment for 4 days are further tested by MTT assay (as described in Example 3) to confirm the drug resistance of these cells to chemotherapeutic agent.
The high resistance of the CSCs to chemotherapeutic agent is further confirmed by the results of MTT assays on single cells from two passages (P7 and P8) after the mammospheres are treated with different combination of chemical(s) for at least 24 hours before trypsinization of mammospheres. The mammospheres are grown under the hypoxic conditions (5% CO2, 1.1% 02) to mimic the physiological environment of a tumor. Different combination of chemical(s) used in the MTT assays include the Hb alone (0.2 g/dL), Bortezomib (“Bort”, 0.5 μM) alone, 5-fluorouracil (“5FU”, 5 μM) alone, or any combination of the above. In case of the combinational drug (i.e. Hb+at least one chemotherapeutic agent), the trypsinized cells are incubated with 0.2 g/dL of Hb for 24 hours followed by the addition of the intended chemotherapeutic agent(s) and incubated for another 24 hours. In the normalized value, “1” represents 100% of survival rate; 0.75 represents 75% of survival rate, etc.

[2] = tested on: HepG2 cells; assay: MTT cytotoxicity assay in HepG2 cells
Experimental: (§2) HepG2 and Huh7 cell lines are used. These cells are cultured in DMEM (Invitrogen) with 10% Fetal bovine serum (FBS), 100 U/ml penicillin and 100 μg/ml streptomycin at 37° C. For normoxic condition, cells are incubated with ambient O2 concentration and 5% CO2; for hypoxic condition, cells are incubated with 0.1-0.5% O2 (Quorum FC-7 automatic CO2/O2/N2 gas mixer) and 5% CO2.
as §1

[3] = tested on: Huh7 cells; assay: MTT cytotoxicity assay in Huh7 cells
Experimental: as §2, §1

[4] = tested on: CD44+/CD24− sorted MCF7 cells; assay: Taxol resistance of CD44+/CD24− sorted MCF7 cells (morphology, MTT); details: 90 nM
Experimental: as §1
In order to test the effect of hemoglobin-based oxygen carrier on the cancer stem cells in a tumor, the MCF7 cells are incubated under hypoxic condition (5% CO2 and 1.1% O2) for 9-20 days before passing to the cell sorter where two filters are used: PE-A for CD24 marker while APC-A for CD44 marker. Quadrant 1 where cells are positive to CD44 and negative to CD24 (FIG. 31) are sorted for further analysis. […]

[5] = Mammosphere (P7) under Hypoxic condition
[6] = Mammosphere (P8) under Hypoxic condition
[7] = Homo sapiens, HepG2, HepG2 hypoxic
[8] = Homo sapiens, HepG2, HepG2 normoxic
[9] = Homo sapiens, Huh-7, Huh7 hypoxic
[10] = Homo sapiens, Huh-7, Huh7 normoxic

SMILES | Absorbance (replicates) [1, 5] | Normalized absorbance (replicates), 1 represents 100% of survival rate [1, 5] | Normalized absorbance Avg, 1 represents 100% of survival rate [1, 5] | Absorbance (replicates) [1, 6] | Normalized absorbance (replicates), 1 represents 100% of survival rate [1, 6] | Normalized absorbance Avg, 1 represents 100% of survival rate [1, 6] | IC50 [2, 7] [µM] | IC50 [2, 8] [µM] | IC50 [3, 9] [µM] | IC50 [3, 10] [µM] | resistance of Huh7 cells as compared to HepG2 cells ([3]; hypoxic condition) [fold] | resistance of Huh7 cells as compared to HepG2 cells ([3]; normoxic condition) [fold] | survival (MTT) ([4]; 4 days) | mammosphere formation ([4]; both unsorted and CD44+/CD24− sorted cells) | IC50 ([2]; HepG2 hypoxic) [µM] | IC50 ([2]; HepG2 normoxic) [µM] | IC50 ([3]; Huh7 hypoxic) [µM] | IC50 ([3]; Huh7 normoxic) [µM]
CC(C)C[C@H](NC(=O)[C@H](Cc1ccccc1)NC(=O)c1cnccn1)B(O)O [Bortezomib] | 0.178 and 0.172 and 0.177 and 0.163 and 0.174 | 0.8624 and 0.9206 and 0.9418 and 0.9101 and 0.9365 | 0.9143 | 0.169 and 0.166 and 0.159 and 0.155 | 0.8086 and 0.7943 and 0.7608 and 0.7416 | 0.7763 | 0.7 | 0.5 | 60 | 55 | 86 | 110 | – | – | – | – | – | –
COc1cccc2c1C(=O)c1c(O)c3c(c(O)c1C2=O)C[C@@](O)(C(=O)CO)C[C@@H]3O[C@H]1C[C@H](N)[C@H](O)[C@H](C)O1 [Doxorubicin] | – | – | – | – | – | – | 30 | 10 | 6 | 5 | – | – | – | – | – | – | – | –
CC(=O)O[C@H]1C(=O)[C@@]2(C)[C@H]([C@H](OC(=O)c3ccccc3)[C@]3(O)C[C@H](OC(=O)[C@H](O)[C@@H](NC(=O)c4ccccc4)c4ccccc4)C(C)=C1C3(C)C)[C@]1(OC(C)=O)CO[C@@H]1C[C@@H]2O [Taxol] | – | – | – | – | – | – | – | – | – | – | – | – | about 96% | seem to be inhibited | – | – | – | –
N.N.[Cl][Pt][Cl] [Cisplatin] | – | – | – | – | – | – | – | – | – | – | – | – | – | – | 170 | 130 | 100 | 70
O=c1[nH]cc(F)c(=O)[nH]1 [5FU, 5-fluorouracil] | 0.171 and 0.197 and 0.139 and 0.143 and 0.169 | 0.7566 and 0.8942 and 0.9048 and 1.042 and 0.7355 | 0.8667 | 0.155 and 0.165 and 0.129 and 0.157 | 0.7416 and 0.7895 and 0.6172 and 0.7512 | 0.7249 | 4000 | 4000 | 4000 | 3500 | – | – | – | – | – | – | – | –
